Assay results published in ChEMBL document CHEMBL5046309, “Discovery of SHR5133, a Highly Potent and Novel HBV Capsid Assembly Modulator” (ACS Med Chem Lett, 2022).
Activity calls are given as the source filed them. No cut-off for these calls is given here.

How the values were obtained:
[1] = system: HepG2 2.2.15; test: Cytotoxicity against human HepG2.2.15 cells assessed as reduction in cell viability incubated for 72 hrs by cell titer-glo assay; type: functional
[2] = system: Hepatitis B virus; test: Antiviral activity against HBV infected in C57BL/6 mouse assessed as reduction on HBsAg level at 10 mg/kg,po BID for 28 days by ELISA; type: functional, organism-based; details: time 28.0 day
[3] = system: Hepatitis B virus; test: Antiviral activity against HBV infected in C57BL/6 mouse assessed as reduction on HBeAg level at 10 mg/kg,po BID for 28 days by ELISA; type: functional, organism-based; details: time 28.0 day
[4] = system: Hepatitis B virus; test: Antiviral activity against HBV infected in C57BL/6 mouse assessed as reduction on HBsAg level at 400 mg/kg,po BID for 28 days by ELISA; type: functional, organism-based; details: time 28.0 day
[5] = system: Hepatitis B virus; test: Antiviral activity against HBV infected in C57BL/6 mouse assessed as reduction on HBeAg level at 400 mg/kg,po BID for 28 days by ELISA; type: functional, organism-based; details: time 28.0 day

## CC1CN(C(=O)Nc2ccc(F)c(C#N)c2)Cc2c(C(=O)N[C@H](C)C(F)(F)F)ncn21 (single isomer, unassigned)
[1]
  CC50: > 100 µM

## C[C@H]1Cn2ncc(C(=O)N[C@H](C)C(F)(F)F)c2CN1C(=O)Nc1ccc(F)c(C#N)c1
[1]
  CC50: > 100 µM

## C[C@H]1Cn2cnc(C(=O)N[C@H](C)C(F)(F)F)c2CN1C(=O)Nc1ccc(F)c(F)c1
[1]
  CC50: 60.9 µM

## C[C@H](NS(=O)(=O)c1cc(C(=O)Nc2ccc(F)c(C#N)c2)n(C)c1)C(F)(F)F
[2]
  Activity: inactive
[3]
  Activity: inactive

## C[C@H]1Cn2ncc(C(=O)N[C@H](C)C(F)(F)F)c2CN1C(=O)Nc1cc(F)nc(F)c1
[1]
  CC50: > 100 µM

## C[C@@H]1Cn2cnc(C(=O)N[C@H](C)C(F)(F)F)c2CN1C(=O)Nc1ccc(F)c(F)c1
[1]
  CC50: > 100 µM

## O=C(Nc1cc(F)c(F)c(F)c1)c1ccc(F)c(S(=O)(=O)N2CCC(O)CC2)c1
[4]
  Activity: inactive
[5]
  Activity: inactive
